Test results from patent US6294526A, “Use of flavone derivatives for induction of β-lactam-sensitivity of MRSA” (priority 1998, dated 2001).
≈ marks a conversion by molar mass, not a printed value. Read-outs that look alike come from different tables or passages of the source. Blank lines part the entries; values can stand above or below the molecule they belong to.

What was measured:
MRSA [1] = test: antibacterial activity (MIC) by agar plate dilution method, MRSA strains; type: cell-based, methicillin-resistant Staphylococcus aureus; conditions: Staphylococcus aureus, 20 h
Experimental: (§1) The screening of the present invention may be carried out according to the agar plate dilution method designated by the Japan Society of Chemotherapy (Chemotherapy 29(1), 76-79 (1981)). Mueller-Hinton agar base semi-synthetic medium may be used for a plate culture medium for a sensitivity test together with an inoculating bacteria solution which may be prepared by culturing bacteria to be tested at 37° C. for 20 hours diluted with 8.5% by isotonic sodium chloride solution to 10^6 CFU/ml. Diluted β-lactam solutions are prepared by two times serial dilution. 1 ml of the diluted β-lactam solution and 1 ml of a predetermined concentration of a sample to be tested are added to 8 ml of the plate culture medium for a sensitivity test. To the resultant plate culture medium for sensitivity test, the bacteria are inoculated using a microplanter (SAKUMASEISAKUSYO Co.), cultured for 20 hours at 37° C. followed by assessing for a minimum inhibition concentration (MIC).
(§2) (A) Antibacterial activities of ether extract from Scutellaria barbata, SB-1 (isolated from Scutellaria barbata), apigenin (authentic sample) and luteolin (authentic sample) were shown in Table 1.
(§3) Flavones were dissolved in methanol and the others were dissolved in 0.1 N NaOH. A method for determination of antibacterial activity is, as described above, an agar plate dilution method designated by the Japan Society of Chemotherapy (Chemotherapy 29(1), 76-79 (1981)) to determine MIC value. MIC80 is a concentration at which a strain is prohibited to proliferate by 80% and MIC50 is a concentration at which a strain is prohibited to proliferate by 50%.

MSSA = test: antibacterial activity (MIC) by agar plate dilution method, MSSA strains; type: cell-based, Methicillin-sensitive Staphylooccus aureus; conditions: Staphylococcus aureus, 20 h
Experimental: as §1, §2, §3

MRSA and MSSA = test: antibacterial activity (MIC) by agar plate dilution method, MRSA and MSSA strains together; type: cell-based, Staphylococcus aureus; conditions: for antibacterial activity (in words): Table 2; for MIC: Staphylococcus aureus, 20 h, read-out: MIC values (text summary of Table 2)
Experimental: as §1, with “(MIC). […]” for “(MIC).”
Antibacterial activity is determined for flavones including flavone, flavonol, flavanone, isoflavone, catechin and calchone, as follows:
as §3

MRSA [2] = test: antibacterial activity of antibiotics alone and in the presence of apigenin (4 μg/ml), MRSA; type: cell-based, methicillin-resistant Staphylococcus aureus; conditions: Staphylococcus aureus, MRSA, 20 h
Experimental: as §1
(D) Then use of 4 μg/ml of apigenin and other antibiotics at the same time was studied. The antibiotics are penicillin , ampicillin, cephalothin, cefoxitin, cefuroxime, cefotaxime, vancomycin, streptomycin, chloramphenicol, kanamycin, erythromycin, nalixic acid and tetracycline.

MRSA No. 5 = test: effect of flavone on antibacterial activity of antibiotics against MRSA No. 5 in bouillon (broth microdilution); type: cell-based, methicillin-resistant Staphylococcus aureus
Experimental: Alternatively, the screening of the present invention may be carried out according to the broth microdilution method designated by the Japan Society of Chemotherapy (Chemotherapy 38(1), 102-105 (1990)). Muellar-Hinton broth is used as a culture medium for the sensitivity test, and 50 mg/ml of calcium(Ca) ion, 25 mg/ml of magnesium(Mg) ion, and 2% sodium chloride (NaCl) are added thereto. An inoculating bacteria solution may be prepared by culturing bacteria to be tested in Mueller-Hinton broth at 37° C. for 20 hours and diluting with Mueller-Hinton broth to 10^5 CFU/ml final concentration of inoculating bacteria. Diluted β-lactam solution is prepared by two times serial dilution series. 10 μl of the diluted β-lactam solution and 10 μl of a predetermined concentration of a sample of bacteria to be tested are added to mix with 80 μl of the culture medium for the sensitivity test. To the resultant plate culture medium for sensitivity test, the inoculating bacteria are added and culturing is carried out for 20 hours at 37° C. and then assessment for a minimum inhibition concentration (MIC) is carried out. A minimum inhibition concentration means the minimum concentration of β-lactam at which growth of bacteria is not recognized by the naked eye.
(G) Antibacterial activity of 6 β-lactams, that is, cephalothin, cefuroxime, cefotaxime, cefoxitin, streptomycin and vancomycin, against MRSA in the presence of 0.5 mM flavone was studied in bouillon.
Muellar-Hinton broth was used as a culture medium for the sensitivity test, and 50 mg/ml of calcium (Ca) ion, 25 mg/ml of maqnesium (Mg) ion, 2% sodium chloride (NaCl) were added thereto. An inoculating bacteria solution was prepared by culturing bacteria to be tested with Mueller-Hinton broth at 37° C. for 20 hours and diluting with Mueller-Hinton broth to 10^5 CFU/ml final concentration of inoculating bacteria. Diluted β-lactam solutions were prepared in two times serial dilutions starting from 10 mM. Ten microliters of the diluted β-lactam solution and 10 μl of 5 mM of flavone were mixed with 80 μl of the culture medium for the sensitivity test in a microplate having U-shaped wells and samples of bacteria to be tested were added thereto. The mixture was cultured 20 hours at 37° C. and then assessed for minimum inhibition concentration (MIC). Minimum inhibition concentration means minimum concentration of a β-lactum at which growth of bacteria is inhibited to the extent that bacteria is not recognized by the naked eye.

[3] = MRSA (20 strains), read-out: MIC50
[4] = MSSA (7 strains), read-out: MIC50
[5] = MSSA, MSSA (7 strains), range over strains, read-out: MIC
[6] = antibiotic with Apigenin (4 μg/ml)

SMILES: O=c1cc(-c2ccc(O)c(O)c2)oc2cc(O)cc(O)c12 [Luteolin, luteolin]
MIC50 (MRSA [1]; MRSA): 125 µg/mL (≈ 437 µM)
MIC (MRSA [1]; MRSA, MRSA (20 strains), range over strains): 62.5 to 125 µg/mL (≈ 218 to 437 µM)
MIC (MRSA [1]; MRSA, MRSA strain No. 1): 125 µg/mL (≈ 437 µM)
MIC (MRSA [1]; MRSA, MRSA strain No. 2): 125 µg/mL (≈ 437 µM)
MIC (MRSA [1]; MRSA, MRSA strain No. 3): 125 µg/mL (≈ 437 µM)
MIC (MRSA [1]; MRSA, MRSA strain No. 4): 125 µg/mL (≈ 437 µM)
MIC (MRSA [1]; MRSA, MRSA strain No. 5): 62.5 µg/mL (≈ 218 µM)
MIC (MRSA [1]; MRSA, MRSA strain No. 6): 62.5 µg/mL (≈ 218 µM)
MIC (MRSA [1]; MRSA, MRSA strain No. 7): 62.5 µg/mL (≈ 218 µM)
MIC (MRSA [1]; MRSA, MRSA strain No. 8): 62.5 µg/mL (≈ 218 µM)
MIC (MRSA [1]; MRSA, MRSA strain No. 9): 62.5 µg/mL (≈ 218 µM)
MIC (MRSA [1]; MRSA, MRSA strain No. 10): 62.5 µg/mL (≈ 218 µM)
MIC (MRSA [1]; MRSA, MRSA strain No. 11): 125 µg/mL (≈ 437 µM)
MIC (MRSA [1]; MRSA, MRSA strain No. 12): 125 µg/mL (≈ 437 µM)
MIC (MRSA [1]; MRSA, MRSA strain No. 13): 62.5 µg/mL (≈ 218 µM)
MIC (MRSA [1]; MRSA, MRSA strain No. 14): 125 µg/mL (≈ 437 µM)
MIC (MRSA [1]; MRSA, MRSA strain No. 15): 125 µg/mL (≈ 437 µM)
MIC (MRSA [1]; MRSA, MRSA strain No. 16): 125 µg/mL (≈ 437 µM)
MIC (MRSA [1]; MRSA, MRSA strain No. 17): 125 µg/mL (≈ 437 µM)
MIC (MRSA [1]; MRSA, MRSA strain No. 18): 125 µg/mL (≈ 437 µM)
MIC (MRSA [1]; MRSA, MRSA strain No. 19): 125 µg/mL (≈ 437 µM)
MIC (MRSA [1]; MRSA, MRSA strain No. 20): 62.5 µg/mL (≈ 218 µM)
MIC50 (MSSA; MSSA): 125 µg/mL (≈ 437 µM)
MIC (MSSA; MSSA, MSSA (7 strains), range over strains): 62.5 to 125 µg/mL (≈ 218 to 437 µM)
MIC (MSSA; MSSA, MSSA strain No. 21): 125 µg/mL (≈ 437 µM)
MIC (MSSA; MSSA, MSSA strain No. 22): 125 µg/mL (≈ 437 µM)
MIC (MSSA; MSSA, MSSA strain No. 23): 62.5 µg/mL (≈ 218 µM)
MIC (MSSA; MSSA, MSSA strain No. 24): 62.5 µg/mL (≈ 218 µM)
MIC (MSSA; MSSA, MSSA strain No. 25): 125 µg/mL (≈ 437 µM)
MIC (MSSA; MSSA, MSSA strain No. 26): 125 µg/mL (≈ 437 µM)
MIC (MSSA; MSSA, MSSA strain No. 27): 62.5 µg/mL (≈ 218 µM)
antibacterial activity (in words) (MRSA and MSSA; MRSA and MSSA): showed antibacterial activity

SMILES: O=c1c(O)c(-c2ccc(O)c(O)c2)oc2cc(O)cc(O)c12 [Quercetin, quercetin]
MIC50 (MRSA [1]; MRSA): 250 µg/mL (≈ 827 µM)
MIC50 (MSSA; [4]): 250 µg/mL (≈ 827 µM)
antibacterial activity (in words) (MRSA and MSSA; MRSA and MSSA): showed antibacterial activity
MIC (MRSA and MSSA): 250 µg/mL (≈ 827 µM)

SMILES: CN[C@H](CC(C)C)C(=O)N[C@H]1C(=O)N[C@@H](CC(N)=O)C(=O)N[C@H]2C(=O)N[C@H]3C(=O)N[C@H](C(=O)N[C@H](C(=O)O)c4cc(O)cc(O)c4-c4cc3ccc4O)[C@H](O)c3ccc(c(Cl)c3)Oc3cc2cc(c3O[C@@H]2O[C@H](CO)[C@@H](O)[C@H](O)[C@H]2O[C@H]2C[C@](C)(N)[C@H](O)[C@H](C)O2)Oc2ccc(cc2Cl)[C@H]1O [Vancomycin, vancomycin]
MIC (MRSA [2]; Antibiotics alone): 0.98 to 2 µg/mL
MIC50 (MRSA [2]; Antibiotics alone): 0.98 µg/mL
MIC (MRSA [2]; [6]): 0.49 to 0.98 µg/mL
MIC50 (MRSA [2]; [6]): 0.49 µg/mL
MIC (MRSA No. 5; Staphylococcus aureus, MRSA, 20 h, Concentration of flavone 0.5 mM): < 0.98 µM
inhibitory effect on resistance of MRSA No.5 (in words) (MRSA No. 5; in the presence of flavone 0.5 mM): appeared not to be showed

Continued, in another order:

MIC50 (MRSA [1]; [3]): 250 µg/mL (≈ 867 µM)
MIC (MRSA [1]; MRSA, MRSA (20 strains), range over strains, read-out: MIC): 250 µg/mL (≈ 867 µM)
MIC50 (MSSA; [4]): 250 µg/mL (≈ 867 µM)
MIC (MSSA; [5]): 250 µg/mL (≈ 867 µM)
MIC (MRSA and MSSA; MRSA and MSSA, "in each case"): 250 µg/mL (≈ 867 µM)
SMILES: O=C1C[C@@H](c2ccc(O)c(O)c2)Oc2cc(O)cc(O)c21 [Eriodictyol, eriodictyol]
antibacterial activity (in words) (MRSA and MSSA; MRSA and MSSA): showed antibacterial activity

MIC50 (MRSA [1]; [3]): 250 µg/mL (≈ 873 µM)
MIC50 (MSSA; [4]): 250 µg/mL (≈ 873 µM)
MIC (MRSA and MSSA; MRSA and MSSA, "in each case"): 250 µg/mL (≈ 873 µM)
SMILES: O=c1c(O)c(-c2ccc(O)cc2)oc2cc(O)cc(O)c12 [Kaempferol, kaempferol]
antibacterial activity (in words) (MRSA and MSSA; MRSA and MSSA): showed antibacterial activity
antibacterial activity (in words) (MRSA and MSSA; MRSA and MSSA, listed as kaemferol): showed activity

MIC50 (MRSA [1]; [3]): 250 µg/mL (≈ 912 µM)
MIC50 (MSSA; [4]): 125 µg/mL (≈ 456 µM)
MIC (MSSA; [5]): 125 to 250 µg/mL (≈ 456 to 912 µM)
MIC (MRSA and MSSA; MRSA and MSSA, "in each case"): 250 µg/mL (≈ 912 µM)
SMILES: O=C(CCc1ccc(O)cc1)c1c(O)cc(O)cc1O [Phloretin, phloretin]
antibacterial activity (in words) (MRSA and MSSA; MRSA and MSSA): showed activity
antibacterial activity (in words) (MRSA and MSSA; MRSA and MSSA, listed as phioretin): showed antibacterial activity

MIC50 (MRSA [1]; [3]): 125 µg/mL (≈ 437 µM)
MIC50 (MSSA; [4]): > 250 µg/mL
MIC (MRSA and MSSA; MRSA and MSSA, "in each case"): 250 µg/mL (≈ 873 µM)
SMILES: COc1cc(O)c2c(c1)OC(c1ccc(O)cc1)CC2=O (stereo not drawn) [Sakranetin, sakranetin]
antibacterial activity (in words) (MRSA and MSSA; MRSA and MSSA): showed antibacterial activity
